From ChEMBL document CHEMBL3774317, “Design and synthesis of novel tamoxifen analogues that avoid CYP2D6 metabolism” (Eur J Med Chem, 2016)

Assays:
Type in all cases: functional
MDA-MB-231 = assay: Cytotoxicity against human MDA-MB-231 cells assessed as cell growth at 10^-5 M after 48 hrs by SRB assay; conditions: MDA-MB-231, 48 h, read-out: Activity
[1] = Cytotoxicity against human SNB19 cells assessed as cell growth at 10^-8 M after 48 hrs by SRB assay; conditions: SNB-19, 48 h, read-out: Activity
[2] = Cytotoxicity against human OVCAR3 cells assessed as cell growth at 10^-6 M after 48 hrs by SRB assay; conditions: OVCAR-3, 48 h, read-out: Activity
[3] = Cytotoxicity against human HOP62 cells assessed as cell growth at 10^-7 M after 48 hrs by SRB assay; conditions: HOP-62, 48 h, read-out: Activity
[4] = Cytotoxicity against human RXF393 cells assessed as cell growth at 10^-6 M after 48 hrs by SRB assay; conditions: RXF 393, 48 h, read-out: Activity
[5] = Cytotoxicity against human LOXIMVI cells assessed as cell growth at 10^-8 M after 48 hrs by SRB assay; conditions: LOX IMVI, read-out: Activity
[6] = Cytotoxicity against human IGROV1 cells assessed as cell growth at 10^-7 M after 48 hrs by SRB assay; conditions: IGROV-1, 48 h, read-out: Activity
[7] = Cytotoxicity against human TK10 cells assessed as cell growth at 10^-7 M after 48 hrs by SRB assay; conditions: TK-10, 48 h, read-out: Activity
CCRF-CEM = assay: Cytotoxicity against human CCRF-CEM cells assessed as cell growth at 10^-7 M after 48 hrs by SRB assay; conditions: read-out: Activity
[8] = Cytotoxicity against human BT549 cells assessed as cell growth at 10^-5 M after 48 hrs by SRB assay; conditions: BT-549, 48 h, read-out: Activity
KM12 [9] = assay: Cytotoxicity against human KM12 cells assessed as cell growth at 10^-4 M after 48 hrs by SRB assay; conditions: KM12, 48 h, read-out: Activity
[10] = Cytotoxicity against human UO31 cells assessed as cell growth at 10^-5 M after 48 hrs by SRB assay; conditions: UO-31, 48 h, read-out: Activity
[11] = Cytotoxicity against human SKOV3 cells assessed as cell growth at 10^-5 M after 48 hrs by SRB assay; conditions: SK-OV-3, 48 h, read-out: Activity
[12] = Cytotoxicity against human HL-60(TB) cells assessed as cell growth at 10^-7 M after 48 hrs by SRB assay; conditions: HL-60, 48 h, read-out: Activity
[13] = Cytotoxicity against human BT549 cells assessed as cell growth at 10^-6 M after 48 hrs by SRB assay; conditions: BT-549, 48 h, read-out: Activity
MDA-MB-435 = assay: Cytotoxicity against human MDA-MB-435 cells assessed as cell growth at 10^-8 M after 48 hrs by SRB assay; conditions: MDA-MB-435, 48 h, read-out: Activity
786-0 = assay: Cytotoxicity against human 786-0 cells assessed as cell growth at 10^-7 M after 48 hrs by SRB assay; conditions: 786-0, 48 h, read-out: Activity
KM12 [14] = assay: Cytotoxicity against human KM12 cells assessed as cell growth at 10^-7 M after 48 hrs by SRB assay; conditions: KM12, 48 h, read-out: Activity
[15] = Cytotoxicity against human SNB19 cells assessed as cell growth at 10^-6 M after 48 hrs by SRB assay; conditions: SNB-19, 48 h, read-out: Activity
K562 [16] = assay: Cytotoxicity against human K562 cells assessed as cell growth at 10^-4 M after 48 hrs by SRB assay; conditions: K562, 48 h, read-out: Activity
[17] = Cytotoxicity against human HCT15 cells assessed as cell growth at 10^-8 M after 48 hrs by SRB assay; conditions: HCT-15, 48 h, read-out: Activity
[18] = Cytotoxicity against human UACC62 cells assessed as cell growth at 10^-4 M after 48 hrs by SRB assay; conditions: UACC-62, 48 h, read-out: Activity
[19] = Cytotoxicity against human UACC62 cells assessed as cell growth at 10^-5 M after 48 hrs by SRB assay; conditions: UACC-62, 48 h, read-out: Activity
KM12 [20] = assay: Cytotoxicity against human KM12 cells assessed as cell growth at 50 nM after 48 hrs by SRB assay; conditions: KM12, 48 h, read-out: Activity
[21] = Cytotoxicity against human OVCAR5 cells assessed as cell growth at 5 nM after 48 hrs by SRB assay; conditions: OVCAR-5, 48 h, read-out: Activity
SR = assay: Cytotoxicity against human SR cells assessed as cell growth at 5 nM after 48 hrs by SRB assay; conditions: read-out: Activity
[22] = Cytotoxicity against human OVCAR4 cells assessed as cell growth at 0.5 uM after 48 hrs by SRB assay; conditions: OVCAR-4, 48 h, read-out: Activity
[23] = Cytotoxicity against human SW620 cells assessed as cell growth at 50 uM after 48 hrs by SRB assay; conditions: SW-620, 48 h, read-out: Activity
A549 = assay: Cytotoxicity against human A549 cells assessed as cell growth at 5 uM after 48 hrs by SRB assay; conditions: A549, 48 h, read-out: Activity
[24] = Cytotoxicity against human LOXIMVI cells assessed as cell growth at 5 uM after 48 hrs by SRB assay; conditions: LOX IMVI, read-out: Activity
[25] = Cytotoxicity against human UO31 cells assessed as cell growth at 50 nM after 48 hrs by SRB assay; conditions: UO-31, 48 h, read-out: Activity
MCF7 = assay: Cytotoxicity against human MCF7 cells assessed as cell growth at 5 nM after 48 hrs by SRB assay; conditions: MCF7, 48 h, read-out: Activity
[26] = Cytotoxicity against human RXF393 cells assessed as cell growth at 0.5 uM after 48 hrs by SRB assay; conditions: RXF 393, 48 h, read-out: Activity
SK-MEL-28 = assay: Cytotoxicity against human SK-MEL-28 cells assessed as cell growth at 5 uM after 48 hrs by SRB assay; conditions: SK-MEL-28, 48 h, read-out: Activity
NCI-H322M = assay: Cytotoxicity against human NCI-H322M cells assessed as cell growth at 50 uM after 48 hrs by SRB assay; conditions: read-out: Activity
[27] = Cytotoxicity against human NCI-ADR-RES cells assessed as cell growth at 50 uM after 48 hrs by SRB assay; conditions: read-out: Activity
K562 [28] = assay: Cytotoxicity against human K562 cells assessed as cell growth at 5 nM after 48 hrs by SRB assay; conditions: K562, 48 h, read-out: Activity
[29] = Cytotoxicity against human HCT116 cells assessed as cell growth at 0.5 uM after 48 hrs by SRB assay; conditions: HCT-116, 48 h, read-out: Activity
[30] = Cytotoxicity against human OVCAR3 cells assessed as cell growth at 0.5 uM after 48 hrs by SRB assay; conditions: OVCAR-3, 48 h, read-out: Activity
[31] = Cytotoxicity against human OVCAR8 cells assessed as cell growth at 0.5 uM after 48 hrs by SRB assay; conditions: OVCAR-8, 48 h, read-out: Activity
NCI-H23 = assay: Cytotoxicity against human NCI-H23 cells assessed as cell growth at 50 nM after 48 hrs by SRB assay; conditions: NCI-H23, 48 h, read-out: Activity

C/C(=C(/c1ccc(O)cc1)c1ccc(OCCN2CCCC2)cc1)c1ccccc1
growth at 10 µM (MDA-MB-231): -10% | growth at 0.01 µM [1]: 104% | growth at 1 µM [2]: 97% | growth at 0.1 µM [3]: 95% | growth at 1 µM [4]: 87% | growth at 0.01 µM [5]: 98% | growth at 0.1 µM [6]: 101% | growth at 0.1 µM [7]: 94% | growth at 0.1 µM (CCRF-CEM): 113% | growth at 10 µM [8]: 24% | growth at 100 µM (KM12 [9]): -89% | growth at 10 µM [10]: -25% | growth at 10 µM [11]: 13% | growth at 0.1 µM [12]: 99% | growth at 1 µM [13]: 92% | growth at 0.01 µM (MDA-MB-435): 93% | growth at 0.1 µM (786-0): 99% | growth at 0.1 µM (KM12 [14]): 100% | growth at 1 µM [15]: 104% | growth at 100 µM (K562 [16]): -70% | growth at 0.01 µM [17]: 92% | growth at 100 µM [18]: -79% | growth at 10 µM [19]: -51%

CCCCCCCCCC(=O)Oc1ccc(/C(=C(/C)c2ccccc2)c2ccc(OCCN3CCCC3)cc2)cc1
growth at 0.05 µM (KM12 [20]): 98% | growth at 0.005 µM [21]: 99% | growth at 0.005 µM (SR): 99% | growth at 0.5 µM [22]: 68% | growth at 50 µM [23]: -97% | growth at 5 µM (A549): 99% | growth at 5 µM [24]: 89% | growth at 0.05 µM [25]: 89% | growth at 0.005 µM (MCF7): 45% | growth at 0.5 µM [26]: 61% | growth at 5 µM (SK-MEL-28): 89% | growth at 50 µM (NCI-H322M): -86% | growth at 50 µM [27]: -73% | growth at 0.005 µM (K562 [28]): 100% | growth at 0.5 µM [29]: 71% | growth at 0.5 µM [30]: 86% | growth at 0.5 µM [31]: 91% | growth at 0.05 µM (NCI-H23): 96%
